Some results are limits rather than exact numbers.

A short description of series [1]: Toxicity in nude BALB/c mouse xenografted with C26 cells assessed as abnormalities in heart size and morphology at 50 mg/kg, po administered once daily. It counts as organism-based. The conditions noted are these: in vivo.
Series [2] can be described thus: Toxicity in nude BALB/c mouse xenografted with C26 cells assessed as abnormalities in lung size and morphology at 50 mg/kg, po administered once daily. It counts as organism-based. The conditions noted are these: in vivo.
Series [3] can be described thus: Antiproliferative activity against human SPCA1 cells expressing wild type EGFR assessed as reduction in cell viability after 72 hrs by MTT assay. It is filed as functional, cell-based. To be noted: SPCA1, 72 h.
The next series deals with L929. The series can be described thus: Cytotoxicity against mouse L929 cells. It counts as cell-based.
A short description of series [4]: Toxicity in nude BALB/c mouse xenografted with C26 cells assessed as abnormalities in liver size and morphology at 50 mg/kg, po administered once daily. It counts as organism-based. The conditions noted are these: in vivo.
A further series relates to A549. The series can be described thus: Antiproliferative activity against human A549 cells expressing wild type EGFR assessed as reduction in cell viability after 72 hrs by MTT assay. To be noted: A549, 72 h. It counts as functional, cell-based.
Series [5] is described as follows: Toxicity in nude BALB/c mouse xenografted with C26 cells assessed as abnormalities in kidney size and morphology at 50 mg/kg, po administered once daily. It is filed as organism-based. To be noted: in vivo.
Another series relates to HCC827. The series can be described thus: Antiproliferative activity against human HCC827 cells assessed as reduction in cell viability after 72 hrs by MTT assay. It counts as functional, cell-based. The conditions noted are these: HCC827, 72 h.
A short description of series [6]: Antitumor activity against mouse C26 cells xenografted in BALB/c mouse assessed as tumor growth inhibition at 50 mg/kg, po administered once daily and measured every two days by caliper method relative to control. It is filed as functional. The conditions noted are these: 48 h, read-out: TGI.
Another series deals with NCI-H441. The experiment in a line: Antiproliferative activity against human NCI-H441 cells […] assessed as reduction in cell viability after 72 hrs by MTT assay. It counts as functional, cell-based. The conditions noted are these: NCI-H441, 72 h.
The next series relates to NCI-H460. The series can be described thus: Antiproliferative activity against human NCI-H460 cells assessed as reduction in cell viability after 72 hrs by MTT assay. It is filed as functional, cell-based. To be noted: NCI-H460, 72 h.
A short description of series [7]: Metabolic stability in human liver microsomes assessed as intrinsic clearance per gram protein. It is filed as ADME, Microsome.
Series [8] can be described thus: Metabolic stability in human liver microsomes assessed as half life. It is filed as ADME, Microsome.
Series [9] can be described thus: Toxicity in nude BALB/c mouse xenografted with C26 cells assessed as change in body weight at 50 mg/kg, po administered once daily and measured every two days. It is filed as organism-based. The conditions noted are these: in vivo.
For the next series, the system named is NCI-H1975. The series can be described thus: Antiproliferative activity against human NCI-H1975 cells assessed as reduction in cell viability after 72 hrs by MTT assay. It is filed as functional, cell-based. The conditions noted are these: NCI-H1975, 72 h.
In another series the test system is NCI-H1650. The series can be described thus: Antiproliferative activity against human NCI-H1650 cells expressing EGFR mutant assessed as reduction in cell viability after 72 hrs by MTT assay. It is filed as functional, cell-based. The conditions noted are these: NCI-H1650, 72 h.
Series [10] in a line: Toxicity in nude BALB/c mouse xenografted with C26 cells assessed as body weight loss at 60 mg/kg, po administered once daily and measured every two days. It counts as organism-based. The conditions noted are these: in vivo.

Take `C=CCc1ccc(OC(C)C)c(-c2cc(CC=C)cc(CN3CCC(NC(=O)[C@@H](N)Cc4ccccc4)CC3)c2O)c1`: the Activity entry is given as “Non-Toxic” in series [1]; “Non-Toxic” in series [2]; “Non-Toxic” in [4]; “Non-Toxic” in series [5]; “Toxic” in [9]. The concentration for half-maximal inhibition (IC50) in series [3] was 1.35 µM; in the series with L929 it was 6.24 µM; in the series with A549, 1.22 µM; with HCC827, 0.85 µM; in the series with NCI-H441, 2.04 µM; in the series on NCI-H460, 1.32 µM. Besides, the IC50 in the series with NCI-H1975 was determined as 2.76 µM; in the series on NCI-H1650 it was 1.68 µM. Further, the inhibition in vivo at 50 mg/kg in [6] turned out to be 62.4%. Further, the CLint in series [7] turned out to be 63.8 mL/min/g. Further, the half-life in [8] turned out to be 21.7 min.
Take `C=CCc1ccc(OCC)c(-c2cc(CC=C)cc(CN3CCC(NC(=O)[C@@H](N)Cc4ccccc4)CC3)c2O)c1`: the Activity result is reported as “Non-Toxic” in [1]; “Non-Toxic” in series [2]; “Non-Toxic” in series [4]; “Non-Toxic” in series [5]; “Toxic” in series [10]; “Toxic” in series [9]. Moreover, the IC50 worked out at 1.94 µM in series [3]; 6.24 µM in the series with L929; 2 µM in the series on A549; 0.82 µM with HCC827; 2.12 µM in the series with NCI-H441; 1.11 µM with NCI-H460. For the same compound, the IC50 in the series with NCI-H1975 came out at 1.45 µM; in the series with NCI-H1650, 2.34 µM. Also, the inhibition in vivo at 50 mg/kg in series [6] worked out at 57.4%. The CLint in [7] was determined as 56.4 mL/min/g. Besides, the half-life in series [8] stood at 24.6 min.
Turning to `C=CCc1ccc(O)c(-c2cc(CC=C)cc(CCCN3CCC(N)CC3)c2O)c1`, the IC50 in the series on HCC827, in the series with NCI-H460 and in the series on NCI-H1975 was above 20 µM in each case.
In the case of `C=CCc1ccc(OCCCO)c(-c2cc(CC=C)cc(CN3CCC(N)CC3)c2O)c1`, the IC50 in the series on HCC827 stood at 6.29 µM; in the series with NCI-H460 it was 6.66 µM; in the series on NCI-H1975, 6.98 µM.
As to `C=CCc1ccc(O)c(-c2cc(CC=C)ccc2O)c1` [MAGNOLOL], the IC50 amounted to 92.5 µM in [3]; 82.4 µM in the series with A549; 94.7 µM in the series with HCC827; 65.8 µM in the series on NCI-H441; 95.6 µM with NCI-H460; 87.3 µM in the series with NCI-H1975. The IC50 with NCI-H1650 is 66.3 µM. Further, the CLint in series [7] came out at 94 mL/min/g. For the same compound, in [8], the half-life came out at 14.7 min.
`C=CCc1ccc(OCCCCCC)c(-c2cc(CC=C)cc(CN3CCC(N)CC3)c2O)c1`: the IC50 in the series with HCC827 stood at 12.5 µM; in the series on NCI-H460, 9.46 µM; in the series with NCI-H1975, 12.3 µM.
With `C=CCc1ccc(OCCCCOC(C)=O)c(-c2cc(CC=C)cc(CN3CCC(N)CC3)c2O)c1`, the IC50 with HCC827, in the series with NCI-H460 and in the series with NCI-H1975 was above 20 µM throughout.
For `C=CCc1ccc(OCCCC)c(-c2cc(CC=C)cc(CN3CCC(N)CC3)c2O)c1`, the results for the IC50 in the series with HCC827, with NCI-H460 and in the series with NCI-H1975 were 9.45 µM, 8.76 µM and 10.4 µM, respectively.
The corresponding values for `C=CCc1ccc(O)c(-c2cc(CC=C)cc(CCCCN3CCC(N)CC3)c2O)c1` are above 20 µM, above 20 µM and above 20 µM.
For `C=CCc1ccc(OCC2CCCO2)c(-c2cc(CC=C)cc(CN3CCC(N)CC3)c2O)c1` (stereo not drawn), in that order: 2.44 µM, 2.76 µM and 5.72 µM.
For `C=CCc1ccc(O)c(-c2cc(CC=C)cc(CN3CCC(NC(=O)[C@H](N)CC(C)C)CC3)c2O)c1`, the IC50 with HCC827, in the series with NCI-H460 and in the series on NCI-H1975 was above 20 µM each time.
As for `C=CCc1ccc(OCCC)c(-c2cc(CC=C)cc(CN3CCC(N)CC3)c2O)c1`, the results for the IC50 with HCC827, in the series on NCI-H460 and in the series on NCI-H1975 were 5.27 µM, 4.85 µM and 4.97 µM, respectively.
`C=CCc1ccc(O)c(-c2cc(CC=C)cc(CN3CCC(NC(=O)[C@@H](N)CC(C)C)CC3)c2O)c1`: the IC50 with HCC827, in the series on NCI-H460 and with NCI-H1975 was above 20 µM each time.
As for `C=CCc1ccc(O)c(-c2cc(CC=C)cc(CN3CCC(NC(=O)[C@@H](N)CCSC)CC3)c2O)c1`, the IC50 in the series on HCC827, in the series on NCI-H460 and in the series with NCI-H1975 was above 20 µM each time.
Regarding `C=CCc1ccc(O)c(-c2cc(CC=C)cc(CN3CCC(NC(=O)[C@@H](N)Cc4ccccc4)CC3)c2O)c1`, the IC50 in the series on HCC827 stood at 10.9 µM; in the series on NCI-H460, 12.5 µM; with NCI-H1975, 11.3 µM.
Regarding `C=CCc1ccc(OC(C)C)c(-c2cc(CC=C)cc(CN3CCC(N)CC3)c2OC(C)C)c1`, the IC50 in the series with HCC827 is 2.05 µM; with NCI-H460, 2.87 µM; in the series on NCI-H1975, 4.14 µM.
Take `C=CCc1ccc(O)c(-c2cc(CC=C)cc(CN3CCC[C@@H]3CO)c2O)c1`: the IC50 in the series on HCC827, in the series on NCI-H460 and in the series on NCI-H1975 was above 20 µM throughout.
In the case of `C=CCc1ccc(OCC)c(-c2cc(CC=C)cc(CN3CCC(N)CC3)c2OCC)c1`, the figures for the IC50 with HCC827, with NCI-H460 and in the series on NCI-H1975 were 2.12 µM, 3.64 µM and 3.45 µM, respectively.
Consider `C=CCc1ccc(O)c(-c2cc(CC=C)cc(Cn3ccc(N)n3)c2O)c1`, for which the IC50 in the series on HCC827 is 16.2 µM; in the series on NCI-H460 it was above 20 µM; in the series with NCI-H1975 it was above 20 µM.
For `C=CCc1ccc(O)c(-c2cc(CC=C)cc(CN3CCC(NC(=O)[C@@H](N)CO)CC3)c2O)c1`, the IC50 came out at 6.24 µM in the series with HCC827, 6.57 µM in the series with NCI-H460 and 7.38 µM with NCI-H1975.
In the case of `C=CCCCCOc1ccc(CC=C)cc1-c1cc(CC=C)cc(CN2CCC(N)CC2)c1O`, the IC50 amounted to 4.48 µM with HCC827, 6.88 µM in the series with NCI-H460 and 14 µM with NCI-H1975.
For the compound `C=CCc1ccc(O)c(-c2cc(CC=C)cc(CN3CCC(NC(=O)CCN)CC3)c2O)c1`, the half-maximal inhibitory concentration (IC50) with HCC827, in the series on NCI-H460 and in the series on NCI-H1975 was above 20 µM each time.
As to `C=CCc1ccc(OC2CCCC2)c(-c2cc(CC=C)cc(CN3CCC(N)CC3)c2O)c1`, the IC50 in the series with HCC827 was determined as 3.51 µM; in the series with NCI-H460 it was 5.85 µM; with NCI-H1975, 6.37 µM.
As to `C=CCCOc1ccc(CC=C)cc1-c1cc(CC=C)cc(CN2CCC(N)CC2)c1O`, the IC50 is 4.3 µM with HCC827, 6.12 µM with NCI-H460 and 12.2 µM with NCI-H1975.
For the compound `C=CCc1ccc(OC(C)C)c(-c2cc(CC=C)cc(CN3CCC(NC(=O)[C@@H](N)CO)CC3)c2O)c1`, the IC50 with HCC827 came out at 2.85 µM; in the series with NCI-H460, 2.87 µM; with NCI-H1975 it was 5.71 µM.
For `C=CCc1ccc(O)c(-c2cc(CC=C)cc(CN3CCCC3)c2O)c1`, the IC50 in the series on HCC827, with NCI-H460 and with NCI-H1975 was above 20 µM in each case.
As to `C=CCc1ccc(O)c(-c2cc(CC=C)cc(CN3CCC(NC(=O)[C@H](N)Cc4ccccc4)CC3)c2O)c1`, the IC50 in the series on HCC827 was 4.74 µM; in the series with NCI-H460, 4.32 µM; in the series on NCI-H1975, 4.08 µM.
The corresponding values for `C=CCc1ccc(O)c(-c2cc(CC=C)cc(CN3CC[C@H](O)C3)c2O)c1` are above 20 µM, above 20 µM and above 20 µM.
As to `C=CCc1ccc(O)c(-c2cc(CC=C)cc(CN3CCC(NC(=O)[C@H](N)c4ccccc4)CC3)c2O)c1`, the IC50 in the series on HCC827 was found to be 5.89 µM; with NCI-H460 it was 6.43 µM; in the series on NCI-H1975, 6.85 µM.
For `C=CCc1ccc(O)c(-c2cc(CC=C)cc(CN3CCC(NC(=O)[C@H](N)CCSC)CC3)c2O)c1`, in that order: above 20 µM, above 20 µM and above 20 µM.
On to `C=CCc1ccc(OCC)c(-c2cc(CC=C)cc(CN3CCC(N)CC3)c2O)c1`, for which the IC50 in [3] was 3.46 µM; in the series with L929, 1.78 µM; with A549 it was 3.05 µM; in the series on HCC827 it was 0.94 µM; in the series on NCI-H441, 2.98 µM; with NCI-H460 it was 1.26 µM. Besides, the figures for the IC50 with NCI-H1975 and with NCI-H1650 were 1.43 µM and 4.15 µM, respectively. Also, the CLint in series [7] was found to be 10.7 mL/min/g. Besides, the half-life in series [8] was 130 min.

The values above are taken from ChEMBL document CHEMBL4732067, “Synthesis and evaluation of new compounds bearing 3-(4-aminopiperidin-1-yl)methyl magnolol scaffold as anticancer agents for the treatment of non-small cell lung cancer via targeting autophagy” (Eur J Med Chem, 2021).
